Assay results from patent US20130017197A1, “STABILIZED ANTIBODY PREPARATIONS AND USES THEREOF” (UNIVERSITE DE GENEVE, priority 2010, published 2013).

Experiments:
Format in all cases: physicochemical
bevacizumab = experiment: Stability of dialysed, pre-stressed bevacizumab alone and with AMP: percentage of monomers by AFFF-MALS; conditions: for percentage of monomers: pH 7.0
Protocol: A 50 mM phosphate buffer pH 7.0 was used. The buffer choice was based on a pH range and buffer capacity that is tolerated physiologically and that is acceptable for the stability of antibodies. […] Samples were analyzed directly after preparation (t0) and after 7, 14 and 28 days. The aggregation state of the antibodies was measured by multi-angle light scattering (MALS) after separation by asymmetrical flow field-flow fractionation (AFFF). […] Data were collected and analyzed with Astra software (Wyatt Technology Europe GmbH, Dernbach, Germany). The aggregation state was expressed as the percentage of monomers versus time.

Avastin® (bevacizumab) [1] = experiment: Effect of AMP on the unmodified commercial bevacizumab formulation (Avastin®): monomers by AFFF-MALS; conditions: 40° C.; for stabilization of the antibody (increase in the amount of monomers) versus Avastin® alone: p<0.05
Protocol: (§1) All samples were stored at a temperature of 40° C. during 28 days. Samples were analyzed directly after preparation (t0) and after 7, 14 and 28 days. The aggregation state of the antibodies was measured by multi-angle light scattering (MALS) after separation by asymmetrical flow field-flow fractionation (AFFF). […] Data were collected and analyzed with Astra software (Wyatt Technology Europe GmbH, Dernbach, Germany). The aggregation state was expressed as the percentage of monomers versus time.
All samples are stored at a temperature of 40° C. for 28 days and stability is measured as described in Example 1 and compared to a sample of Avastin® alone stored under the same conditions.

Avastin® (bevacizumab) [2] = experiment: Stability of pre-stressed Avastin® dialysed into PBS pH 7.0, with ATP or GMP: monomers by AFFF-MALS; conditions: for stabilization of Avastin® across molar ratios: ratios 1:1, 1:10, 1:100, 40° C.
Protocol: as §1, with “Samples were analyzed directly after preparation (t0) and after 7, 14 and 28 days.” left out
After pre-stressing, Avastin® samples are combined with either ATP or GMP at three Avastin®: compound of formula (I) molar ratios (1:1, 1:10 and 1:100). All samples are stored at a temperature of 40° C. for 28 days and stability is measured as described in Example 1 and compared to a sample of Avastin® alone stored under the same conditions. For GMP, a dilution of GMP was made in PBS pH 7.0 and pH was re-adjusted to pH 7.0 before the combination with Avastin® to prevent the risk of higher order aggregates caused by the addition of NaOH directly to the antibody formulation.

[3] = molar ratio 1:1, 1 day at 40° C. (t1)
[4] = molar ratio 1:10, 1 day at 40° C. (t1)
[5] = molar ratio 1:100, 1 day at 40° C. (t1)

increase in the proportion of the antibody present in the monomer form (bevacizumab; AMP added to a liquid formulation containing already formed antibody aggregates, general statement) | percentage of monomers (bevacizumab; bevacizumab 25 mg/ml with AMP (read as molar ratio 1:153), 14 days at 40° C., n=3) | percentage of monomers (bevacizumab; bevacizumab:AMP molar ratio 1:1.53, 14 days at 40° C.) | percentage of monomers (bevacizumab; bevacizumab:AMP molar ratio 1:1.53, 28 days at 40° C., n=3) | percentage of monomers (bevacizumab; bevacizumab:AMP molar ratio 1:15.3, 14 days at 40° C.) | percentage of monomers (bevacizumab; bevacizumab:AMP molar ratio 1:15.3, 28 days at 40° C., n=3) | percentage of monomers (bevacizumab; bevacizumab:AMP molar ratio 1:153, 28 days at 40° C., n=3) | stabilization compared to the other molar ratios (Avastin® (bevacizumab) [1]; Avastin®:AMP 1:10 versus 1:1 and 1:100) | stabilization of the antibody (increase in the amount of monomers) versus Avastin® alone (Avastin® (bevacizumab) [1]; Avastin®:AMP molar ratio 1:10, t1, t14 and t28) | stabilization of the antibody (increase in the amount of monomers) versus Avastin® alone (Avastin® (bevacizumab) [1]; Avastin®:AMP molar ratio 1:100, only t14 and t28) | stabilizing properties in comparison of excipients (Avastin® (bevacizumab) [2]; after 28 days of storage at 40° C., ratio not specified) | stabilization of Avastin® across molar ratios (Avastin® (bevacizumab) [2]; all timepoints (1:100 most effective, then 1:10, then 1:1)) | Structure (SMILES) | effect on antibody stability versus Avastin® alone (Avastin® (bevacizumab) [2]; [3]) | effect on antibody stability versus Avastin® alone (Avastin® (bevacizumab) [2]; molar ratio 1:1, 28 days at 40° C. (t28)) | effect on antibody stability versus Avastin® alone (Avastin® (bevacizumab) [2]; [4]) | effect on antibody stability versus Avastin® alone (Avastin® (bevacizumab) [2]; molar ratio 1:10, 28 days at 40° C. (t28)) | effect on antibody stability versus Avastin® alone (Avastin® (bevacizumab) [2]; [5]) | effect on antibody stability versus Avastin® alone (Avastin® (bevacizumab) [2]; molar ratio 1:100, 28 days at 40° C. (t28)) | higher order aggregates (Avastin® (bevacizumab) [2]; molar ratio 1:100, 28 days at 40° C., probably due to pH adjustment) | stabilization of Avastin® across molar ratios (Avastin® (bevacizumab) [2]; up to 14 days)
10% to 30 | higher than 94% | higher than 80% | higher than 76% | higher than 80% | higher than 76% | around 90% | better stabilization | significant stabilization | significant stabilization | – | – | Nc1ncnc2c1ncn2[C@@H]1O[C@H](COP(=O)(O)O)[C@@H](O)[C@H]1O [AMP, adenosine 5′-monophosphate] | – | – | – | – | – | – | – | –
– | – | – | – | – | – | – | – | – | – | – | – | Nc1ncnc2c1ncn2[C@@H]1O[C@H](COP(=O)(O)OP(=O)(O)OP(=O)(O)O)[C@@H](O)[C@H]1O [ATP, adenosine 5′-triphosphate] | stabilizing effect | no significant difference | stabilizing effect | no significant difference | stabilizing effect | significant stabilization | small percentage of higher order aggregates | concentration dependent stabilization
– | – | – | – | – | – | – | – | – | – | most distinct stabilizing properties | concentration dependent stabilization | Nc1nc2c(ncn2[C@@H]2O[C@H](COP(=O)(O)O)[C@@H](O)[C@H]2O)c(=O)[nH]1 [GMP, guanosine 5′-monophosphate] | destabilizing | – | destabilizing | – | ability to stabilize the antibody | – | – | –
